{"source": "patent US20050085463A1", "about": "(priority 2003, published 2005)", "key": {"5HT7 receptors": {"target": "5HT7 receptors (Homo sapiens, UniProt P34969)", "sequence (P34969 whole entry)": "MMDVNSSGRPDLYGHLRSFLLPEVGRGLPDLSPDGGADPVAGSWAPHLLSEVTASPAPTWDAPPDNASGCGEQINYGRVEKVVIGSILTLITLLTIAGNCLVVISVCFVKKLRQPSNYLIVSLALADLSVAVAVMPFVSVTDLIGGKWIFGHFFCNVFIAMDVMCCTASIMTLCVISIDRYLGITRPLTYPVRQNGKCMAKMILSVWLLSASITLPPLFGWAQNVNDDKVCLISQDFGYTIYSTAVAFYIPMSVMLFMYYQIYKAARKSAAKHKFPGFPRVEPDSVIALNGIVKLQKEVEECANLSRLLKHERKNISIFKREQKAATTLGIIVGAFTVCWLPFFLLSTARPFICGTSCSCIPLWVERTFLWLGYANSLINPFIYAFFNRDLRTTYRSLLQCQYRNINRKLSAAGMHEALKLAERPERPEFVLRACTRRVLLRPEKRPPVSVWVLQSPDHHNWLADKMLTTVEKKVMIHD", "test": "Ligand binding screen at 10 μM"}, "[1]": {"target": "T1, α1A (Alpha 1A) adrenergic receptor (Homo sapiens, UniProt P35348)", "T1 sequence (P35348 1-466)": "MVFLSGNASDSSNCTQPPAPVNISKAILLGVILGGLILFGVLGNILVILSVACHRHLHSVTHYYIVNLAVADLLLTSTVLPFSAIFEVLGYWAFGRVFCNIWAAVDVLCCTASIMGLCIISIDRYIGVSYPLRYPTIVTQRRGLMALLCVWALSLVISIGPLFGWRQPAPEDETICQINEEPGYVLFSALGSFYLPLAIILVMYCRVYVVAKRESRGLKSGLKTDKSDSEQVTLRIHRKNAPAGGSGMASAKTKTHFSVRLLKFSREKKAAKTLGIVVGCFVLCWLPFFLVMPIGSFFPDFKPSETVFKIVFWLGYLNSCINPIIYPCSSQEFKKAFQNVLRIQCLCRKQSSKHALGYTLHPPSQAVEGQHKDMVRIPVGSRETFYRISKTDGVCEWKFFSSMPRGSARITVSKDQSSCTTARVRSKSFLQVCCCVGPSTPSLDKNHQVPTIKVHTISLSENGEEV", "test": "cell-based"}, "spontaneous activity": {"test_system": "spontaneous activity", "test": "Spontaneous locomotion", "assay_type": "in vivo, Non-Swiss Albino (NSA) mice", "conditions": "10 mg/kg s.c.; maintained for 120 minutes"}, "5-HT2C receptor": {"target": "5-HT2C receptor (Homo sapiens, UniProt P28335)", "sequence (P28335 33-458)": "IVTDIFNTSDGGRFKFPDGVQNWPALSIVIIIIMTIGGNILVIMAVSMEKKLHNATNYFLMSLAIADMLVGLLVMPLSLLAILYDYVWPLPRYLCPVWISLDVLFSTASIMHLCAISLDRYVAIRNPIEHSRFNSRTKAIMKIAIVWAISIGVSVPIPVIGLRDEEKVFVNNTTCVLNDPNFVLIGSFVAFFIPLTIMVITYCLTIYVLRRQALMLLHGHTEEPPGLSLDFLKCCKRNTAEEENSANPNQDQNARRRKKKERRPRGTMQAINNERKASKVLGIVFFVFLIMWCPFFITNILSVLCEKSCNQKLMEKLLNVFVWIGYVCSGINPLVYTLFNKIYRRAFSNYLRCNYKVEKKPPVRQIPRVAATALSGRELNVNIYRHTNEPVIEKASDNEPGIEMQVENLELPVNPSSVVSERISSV", "test": "R-SAT competitive antagonist assay"}, "M1 muscarinic receptor": {"target": "T2, M1 muscarinic receptor (Homo sapiens, UniProt P11229)", "T2 sequence (P11229 1-460)": "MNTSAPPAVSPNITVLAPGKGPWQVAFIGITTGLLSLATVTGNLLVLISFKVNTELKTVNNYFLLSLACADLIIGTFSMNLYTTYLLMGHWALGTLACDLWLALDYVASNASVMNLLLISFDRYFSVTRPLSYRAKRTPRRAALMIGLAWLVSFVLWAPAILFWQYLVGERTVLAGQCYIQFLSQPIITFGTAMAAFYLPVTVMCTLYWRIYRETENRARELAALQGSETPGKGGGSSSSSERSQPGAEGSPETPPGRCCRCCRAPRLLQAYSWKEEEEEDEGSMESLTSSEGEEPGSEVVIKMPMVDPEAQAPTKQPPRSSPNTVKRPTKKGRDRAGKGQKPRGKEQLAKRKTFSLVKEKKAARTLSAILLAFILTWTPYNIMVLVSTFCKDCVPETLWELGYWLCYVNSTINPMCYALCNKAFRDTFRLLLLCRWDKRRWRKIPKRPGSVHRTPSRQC", "test": "R-SAT agonist assay", "assay_type": "cell-based", "parameters": "expressed in transfected cells; host or cells: NIH/3T3"}, "M5 muscarinic receptor": {"target": "T3, M5 muscarinic receptor (Homo sapiens, UniProt P08912)", "T3 sequence (P08912 1-532)": "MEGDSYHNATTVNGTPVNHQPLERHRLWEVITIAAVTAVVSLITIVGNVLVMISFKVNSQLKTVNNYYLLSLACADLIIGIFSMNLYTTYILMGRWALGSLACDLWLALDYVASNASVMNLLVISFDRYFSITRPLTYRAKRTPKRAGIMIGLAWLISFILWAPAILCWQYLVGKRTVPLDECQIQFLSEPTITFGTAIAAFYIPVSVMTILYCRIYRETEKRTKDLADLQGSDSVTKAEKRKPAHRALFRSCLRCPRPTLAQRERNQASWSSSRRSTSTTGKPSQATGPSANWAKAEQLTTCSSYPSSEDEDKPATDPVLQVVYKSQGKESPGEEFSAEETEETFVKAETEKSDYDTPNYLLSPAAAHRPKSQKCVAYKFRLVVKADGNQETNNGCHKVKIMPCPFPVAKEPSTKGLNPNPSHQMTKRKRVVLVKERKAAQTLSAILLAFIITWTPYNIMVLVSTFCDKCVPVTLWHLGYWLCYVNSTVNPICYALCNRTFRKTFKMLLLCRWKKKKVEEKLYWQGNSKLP", "test": "R-SAT agonist assay", "assay_type": "cell-based", "parameters": "expressed in transfected cells; host or cells: NIH/3T3"}, "5-HT1A receptor": {"target": "T4, 5-HT1A receptor (Homo sapiens, UniProt P08908)", "T4 sequence (P08908 1-422)": "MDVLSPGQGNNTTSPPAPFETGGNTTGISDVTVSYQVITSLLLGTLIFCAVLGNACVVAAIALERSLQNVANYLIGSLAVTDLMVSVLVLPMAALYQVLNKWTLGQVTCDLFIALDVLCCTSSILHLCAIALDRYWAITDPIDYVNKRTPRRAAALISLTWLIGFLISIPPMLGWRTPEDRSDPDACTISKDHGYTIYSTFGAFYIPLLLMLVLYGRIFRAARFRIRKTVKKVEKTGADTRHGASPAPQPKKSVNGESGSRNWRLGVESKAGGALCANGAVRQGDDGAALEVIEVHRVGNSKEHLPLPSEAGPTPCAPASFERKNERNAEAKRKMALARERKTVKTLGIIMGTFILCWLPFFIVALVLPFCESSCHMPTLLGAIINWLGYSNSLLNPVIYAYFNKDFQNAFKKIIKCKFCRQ", "test": "Ligand binding screen at 10 μM"}, "5HT6 receptors": {"target": "5HT6 receptors (Homo sapiens, UniProt P50406)", "sequence (P50406 whole entry)": "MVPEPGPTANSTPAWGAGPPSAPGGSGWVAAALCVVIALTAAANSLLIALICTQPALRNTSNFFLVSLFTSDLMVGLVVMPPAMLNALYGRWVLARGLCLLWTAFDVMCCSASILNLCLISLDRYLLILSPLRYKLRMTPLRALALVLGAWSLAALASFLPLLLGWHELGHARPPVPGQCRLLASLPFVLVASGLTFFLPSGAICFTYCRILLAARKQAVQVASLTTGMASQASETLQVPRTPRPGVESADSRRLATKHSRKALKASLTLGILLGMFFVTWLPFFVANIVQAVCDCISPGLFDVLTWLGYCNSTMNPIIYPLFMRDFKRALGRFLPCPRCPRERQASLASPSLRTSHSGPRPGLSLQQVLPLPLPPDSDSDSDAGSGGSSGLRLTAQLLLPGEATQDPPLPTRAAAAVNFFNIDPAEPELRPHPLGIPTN", "test": "Ligand binding screen at 10 μM"}, "M1 receptors": {"target": "M1 receptors (Homo sapiens, UniProt P11229)", "test": "Ligand binding screen at 10 μM"}, "[2]": {"test_system": "apomorphine-induced climbing", "test": "Reversal of apomorphine-induced climbing", "conditions": "s.c."}, "Ca^2+ channels": {"test_system": "Ca^2+ channels", "test": "Ligand binding screen at 10 μM"}}, "note": "Where “and” joins values, the source holds several entries; their conditions need not be identical. Identical values can stand only once.", "data": [{"smiles": "Clc1ccc2c(c1)N=C(N1CCNCC1)c1ccccc1N2", "note": "[NDMC, 8-chloro-11-(1-piperazinyl)-5H-dibenzo [b,e][1,4] diazepine]", "values": [{"measurement": "inhibition at 10 µM", "setting": "5HT7 receptors", "value": "≥ 90", "unit": "%"}, {"measurement": "Ki", "setting": "[1]", "value": 50.1, "unit": "nM"}, {"measurement": "time of maximal reduction of spontaneous activity", "setting": "spontaneous activity", "value": 30, "unit": "min"}, {"measurement": "Ki", "setting": "5-HT2C receptor", "value": 15.8, "unit": "nM"}, {"measurement": "pKi 5-HT2C, competitive antagonist", "setting": "5-HT2C receptor; R-SAT, nr = no significant antagonist or inverse agonist activity up to 1 μM, nr* = nr but significant agonist activity", "value": "7.8 ± 0.2"}, {"measurement": "Ki", "setting": "M1 muscarinic receptor", "value": 50, "unit": "nM"}, {"measurement": "EC50", "setting": "M1 muscarinic receptor; M1 pEC50, R-SAT agonist", "value": "55 nM and 50.1 nM"}, {"measurement": "EC50", "setting": "M5 muscarinic receptor; R-SAT agonist, read-out: M5 pEC50 (converted)", "value": "23.4 nM and 25.1 nM"}, {"measurement": "M5 Efficacy", "setting": "M5 muscarinic receptor; R-SAT, relative to carbachol, No response/nr = no agonist activity up to 10 μM", "value": "48 ± 6", "unit": "%"}, {"measurement": "Ki", "setting": "M5 muscarinic receptor; functional pharmacological screen, read-out: Ki, partial agonist of M5", "value": 25, "unit": "nM"}, {"measurement": "inhibition at 10 µM", "setting": "5-HT1A receptor", "value": "≥ 90", "unit": "%"}, {"measurement": "inhibition at 10 µM", "setting": "5HT6 receptors", "value": "≥ 90", "unit": "%"}, {"measurement": "inhibition at 10 µM", "setting": "M1 receptors", "value": "≥ 90", "unit": "%"}, {"measurement": "minimal effective dose, reduction of apomorphine-induced climbing", "setting": "[2]", "value": "> 100", "unit": "mg/kg"}, {"measurement": "inhibition of binding, Ca^2+ channels", "setting": "Ca^2+ channels", "value": "≥ 90", "unit": "%"}]}]}
